The subject of the test is NL-RLuc virus. In words: Inhibition of HIV replication (NL-RLuc virus, luciferase readout in MT-2 cells). The following applies: Human immunodeficiency virus 1, MT2, 120 h; for pEC50: read-out: Activity. The format is cell-based. A digest of the protocol:
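MT-2 cells were infected with NL-RLuc (Renilla luciferase in place of nef) in the presence of serial compound dilutions, in RPMI 1640 with 10% heat-inactivated FBS. After 5 days, luciferase was measured. EC50 came from the median effect equation using at least 2 experiments.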

pEC50: −log10 of the molar value. Read-outs that look alike come from different tables or passages of the source.

As a reminder, the EC50 is the midpoint of the concentration-response curve.

On to `Cc1nc(CCCC2CCOCC2)c(-c2ccc(OCCc3ccc(F)cc3)cc2)c(-c2ccc3c(c2)CCCO3)c1[C@H](OC(C)(C)C)C(=O)O` [Example 66, (S)-2-(tert-Butoxy)-2-(4-(chroman-6-yl)-5-(4-(4-fluorophenethoxy)phenyl)-2-methyl-6-(3-(tetrahydro-2H-pyran-4-yl)propyl)pyridin-3-yl)acetic Acid], for which the pEC50 was greater than 7.00. Also, the EC50 (read-out: EC50 μM) was found to be 0.006 µM.

On to `Cc1cc(N2CCc3cc(-c4c(CCCC5CCOCC5)nc(C)c([C@H](OC(C)(C)C)C(=O)O)c4-c4ccc5c(c4)CCCO5)ccc3C2)ncn1` [Example 67, (S)-2-(tert-Butoxy)-2-(4-(chroman-6-yl)-2-methyl-5-(2-(6-methylpyrimidin-4-yl)-1,2,3,4-tetrahydroisoquinolin-6-yl)-6-(3-(tetrahydro-2H-pyran-4-yl)propyl)pyridin-3-yl)acetic Acid], for which the pEC50 was greater than 7.00.

Regarding `Cc1cccc(F)c1CN1CCc2cc(-c3c(CCCC4CCOCC4)nc(C)c([C@H](OC(C)(C)C)C(=O)O)c3-c3ccc4c(c3)CCCO4)ccc2C1` [Example 68, (S)-2-(tert-Butoxy)-2-(4-(chroman-6-yl)-5-(2-(2-fluoro-6-methylbenzyl)-1,2,3,4-tetrahydroisoquinolin-6-yl)-2-methyl-6-(3-(tetrahydro-2H-pyran-4-yl)propyl)pyridin-3-yl)acetic Acid], the pEC50 was greater than 7.00.

The values are drawn from US10106504B2, “Pyridin-3-yl acetic acid derivatives as inhibitors of human immunodeficiency virus replication” (priority 2015, dated 2018).
